Experimental data as given in ChEMBL document CHEMBL1201862, “PubChem BioAssay data set” (2004).
Active and inactive are the calls of the source.

Experiments:
[1] = test system: CHO-K1; assay: (§1) Counterscreen for antagonists of the orexin 1 receptor (OX1R; HCRTR1): Homogeneous time resolved fluorescence (HTRF)-based cell-based dose response assay to identify antagonists of the parental CHO-K1 cell line. [Related pubchem assays (depositor defined):AID434989, AID435008, AID463079, AID485270, AID492963, AID492964, AID492965, AID493232, AID504699, AID504701]; format: functional; conditions: Cricetulus griseus
[2] = molecular target: T1, Orexin receptor type 2 (Homo sapiens, UniProt O43614); assay: Counterscreen assay for antagonists of the orexin 1 receptor (OX1R; HCRTR1): Fluorescence-based cell-based dose response assay for antagonists of the orexin 2 receptor (OX2R; HCRTR2), run by assay provider.; format: functional
T1 sequence (O43614 whole entry): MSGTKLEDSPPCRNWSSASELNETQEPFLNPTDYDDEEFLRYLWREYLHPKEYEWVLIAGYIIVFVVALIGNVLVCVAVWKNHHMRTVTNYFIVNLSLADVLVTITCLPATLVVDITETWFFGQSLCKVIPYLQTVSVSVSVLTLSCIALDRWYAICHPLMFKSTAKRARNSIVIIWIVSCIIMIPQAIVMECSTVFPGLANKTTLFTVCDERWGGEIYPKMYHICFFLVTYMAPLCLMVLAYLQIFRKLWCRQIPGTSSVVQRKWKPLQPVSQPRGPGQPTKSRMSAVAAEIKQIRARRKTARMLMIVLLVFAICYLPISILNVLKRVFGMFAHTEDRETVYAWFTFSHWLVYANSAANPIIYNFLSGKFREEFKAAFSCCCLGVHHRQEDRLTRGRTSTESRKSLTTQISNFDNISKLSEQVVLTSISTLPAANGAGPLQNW

[3] = as §1, with “Fluorescence-based” for “Homogeneous time resolved fluorescence (HTRF)-based”, “cell-based high throughput” for “cell-based”, “CHO” for “CHO-K1”; format: functional
[4] = molecular target: T1, Orexin receptor type 2; assay: Counterscreen assay for antagonists of the orexin 1 receptor (OX1R; HCRTR1): Homogeneous Time Resolved Fluorescence (HTRF)-based cell-based dose response assay for antagonists of the orexin 2 receptor (OX2R; HCRTR2), run by assay provider.; format: functional
[5] = molecular target: T2, Orexin/Hypocretin receptor type 1 (Homo sapiens, UniProt O43613); assay: (§2) Fluorescence-based cell-based high throughput dose response assay for antagonists of the orexin 1 receptor (OX1R; HCRTR1). [Related pubchem assays (depositor defined):AID434989, AID435008, AID463079, AID485270, AID492963, AID492964, AID492965, AID493232, AID504717, AID504718]; format: functional
[6] = molecular target: T2, Orexin/Hypocretin receptor type 1; assay: as §2, with “Homogeneous Time Resolved Fluorescence (HTRF)-based” for “Fluorescence-based”; format: functional
[7] = mammalian cell cytotoxicity, dose response, cytotoxicity control, plate reader, cherry-pick samples (AID 504397); format: functional, cell-based
[8] = molecular target: T3, CAAX prenyl protease 2 (Saccharomyces cerevisiae S288c, UniProt Q03530); format: biochemical
T3 sequence (Q03530 whole entry): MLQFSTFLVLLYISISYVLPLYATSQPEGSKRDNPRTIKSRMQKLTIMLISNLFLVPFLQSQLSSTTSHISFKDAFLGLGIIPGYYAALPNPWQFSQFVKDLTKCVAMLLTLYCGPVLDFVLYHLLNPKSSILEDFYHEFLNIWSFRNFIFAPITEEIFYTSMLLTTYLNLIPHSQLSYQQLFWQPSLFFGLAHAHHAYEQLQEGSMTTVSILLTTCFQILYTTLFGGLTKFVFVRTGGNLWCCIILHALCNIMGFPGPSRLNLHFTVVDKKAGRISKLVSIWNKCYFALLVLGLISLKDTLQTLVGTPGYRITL

[9] = molecular target: T4, Mu-type opioid receptor (Homo sapiens, UniProt P35372); assay: HTS Image-Based Screen for Agonists of the MOR Receptor. [Related pubchem assays (depositor defined):AID1777, AID1785, AID1786, AID2133]; format: functional
[10] = molecular target: T5, Delta-type opioid receptor (Homo sapiens, UniProt P41143); assay: HTS Image-Based Screen for Antagonists of the DOR Receptor. [Related pubchem assays (depositor defined):AID1777, AID1785, AID1786, AID2133]; format: functional
[11] = molecular target: Beta-galactosidase (Escherichia coli, UniProt Q8VNN2); format: functional
[12] = molecular target: T4, Mu-type opioid receptor; assay: SAR Analysis of Antagonists of the MOR Receptor using an Image-Based Assay - Set 3. [Related pubchem assays (depositor defined):AID1777, AID1785, AID1786, AID1966, AID2133, AID2136, AID2284, AID2285, AID2420]; format: functional
[13] = molecular target: T4, Mu-type opioid receptor; assay: MOR antagonists, SAR follow-up, image-based (AID 2420); format: functional;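 note: compounds added before stimulation of receptor with agonist DAMGO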
[14] = molecular target: T5, Delta-type opioid receptor; assay: SAR Analysis of Antagonists of the DOR Receptor using an Image-Based Assay - Set 3. [Related pubchem assays (depositor defined):AID1777, AID1785]; format: functional
[15] = molecular target: T4, Mu-type opioid receptor; assay: MOR agonists by imaging, SAR follow-up, image-based (AID 2352); format: functional
[16] = molecular target: T5, Delta-type opioid receptor; assay: DOR antagonists, SAR follow-up, image-based (AID 2357); format: functional
[17] = molecular target: T5, Delta-type opioid receptor; assay: HTS Image-Based Screen for Agonists of the DOR Receptor. [Related pubchem assays (depositor defined):AID1777, AID1786, AID2133]; format: functional
[18] = molecular target: T5, Delta-type opioid receptor; assay: DOR agonists, SAR follow-up, image-based (AID 2370); format: functional
[19] = molecular target: T6, Runt-related transcription factor 1/Core-binding factor subunit beta (Homo sapiens, UniProt Q01196+Q13951); assay: inhibitors of RUNX1 Runt–CBFb-SMMHC binding, biochemical, TR-FRET (AID 1438); format: protein assay
[20] = NIH-3T3 fibroblast cytotoxicity, dose response, cytotoxicity control, cell-based, fluorescence, Alamar Blue, secondary assay (AID 2327); format: functional;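 note: NIH-3T3 mouse fibroblasts cultured with fluconazole at 8 µg/mL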
[21] = molecular target: T6, Runt-related transcription factor 1/Core-binding factor subunit beta; assay: inhibitors of RUNX1 Runt–CBFb-SMMHC binding, primary screen, biochemical, FRET, Cerulean-Runt, Venus-CBFb-SMMHC, uHTS (AID 1434); format: protein assay;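 note: partner is the CBFb-SMMHC leukemia fusion protein rather than wild-type CBFb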

T5 sequence (P41143 whole entry): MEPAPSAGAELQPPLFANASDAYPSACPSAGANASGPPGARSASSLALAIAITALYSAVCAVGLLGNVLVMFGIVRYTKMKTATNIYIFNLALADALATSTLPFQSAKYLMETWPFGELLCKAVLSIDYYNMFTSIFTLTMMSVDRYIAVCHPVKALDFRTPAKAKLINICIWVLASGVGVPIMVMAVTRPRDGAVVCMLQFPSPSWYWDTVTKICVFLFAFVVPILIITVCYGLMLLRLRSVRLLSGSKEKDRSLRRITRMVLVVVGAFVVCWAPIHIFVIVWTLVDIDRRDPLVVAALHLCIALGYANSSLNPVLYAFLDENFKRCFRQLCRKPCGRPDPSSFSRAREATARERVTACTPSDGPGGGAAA
T4 sequence (P35372 whole entry): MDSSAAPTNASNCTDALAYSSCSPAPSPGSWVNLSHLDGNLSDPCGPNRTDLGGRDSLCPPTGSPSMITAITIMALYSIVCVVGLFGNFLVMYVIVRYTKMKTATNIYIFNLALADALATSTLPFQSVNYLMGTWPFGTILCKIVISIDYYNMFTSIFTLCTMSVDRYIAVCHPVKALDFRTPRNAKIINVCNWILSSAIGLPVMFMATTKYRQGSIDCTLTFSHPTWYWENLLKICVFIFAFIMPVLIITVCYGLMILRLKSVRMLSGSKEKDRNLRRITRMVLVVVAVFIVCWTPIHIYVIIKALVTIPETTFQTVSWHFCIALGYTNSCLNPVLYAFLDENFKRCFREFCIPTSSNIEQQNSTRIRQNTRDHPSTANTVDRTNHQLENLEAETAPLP
T6 sequence (Q01196 whole entry): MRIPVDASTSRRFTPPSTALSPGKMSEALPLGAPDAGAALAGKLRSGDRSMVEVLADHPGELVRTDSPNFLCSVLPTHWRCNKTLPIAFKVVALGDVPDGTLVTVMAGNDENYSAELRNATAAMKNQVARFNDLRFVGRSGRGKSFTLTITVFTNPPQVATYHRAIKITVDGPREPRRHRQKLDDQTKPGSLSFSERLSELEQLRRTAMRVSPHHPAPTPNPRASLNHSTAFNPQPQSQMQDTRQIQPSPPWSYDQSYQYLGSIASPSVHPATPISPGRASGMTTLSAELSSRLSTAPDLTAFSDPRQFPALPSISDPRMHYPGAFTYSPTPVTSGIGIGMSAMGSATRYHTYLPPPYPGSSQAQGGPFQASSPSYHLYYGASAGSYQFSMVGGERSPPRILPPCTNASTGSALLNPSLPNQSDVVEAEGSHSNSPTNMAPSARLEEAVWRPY
T6 sequence (Q13951 whole entry): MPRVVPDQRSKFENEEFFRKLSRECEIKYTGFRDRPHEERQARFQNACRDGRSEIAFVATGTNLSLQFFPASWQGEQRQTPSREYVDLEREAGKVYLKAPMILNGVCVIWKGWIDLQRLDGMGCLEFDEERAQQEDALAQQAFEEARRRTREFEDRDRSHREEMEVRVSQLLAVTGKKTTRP
T2 sequence (O43613 whole entry): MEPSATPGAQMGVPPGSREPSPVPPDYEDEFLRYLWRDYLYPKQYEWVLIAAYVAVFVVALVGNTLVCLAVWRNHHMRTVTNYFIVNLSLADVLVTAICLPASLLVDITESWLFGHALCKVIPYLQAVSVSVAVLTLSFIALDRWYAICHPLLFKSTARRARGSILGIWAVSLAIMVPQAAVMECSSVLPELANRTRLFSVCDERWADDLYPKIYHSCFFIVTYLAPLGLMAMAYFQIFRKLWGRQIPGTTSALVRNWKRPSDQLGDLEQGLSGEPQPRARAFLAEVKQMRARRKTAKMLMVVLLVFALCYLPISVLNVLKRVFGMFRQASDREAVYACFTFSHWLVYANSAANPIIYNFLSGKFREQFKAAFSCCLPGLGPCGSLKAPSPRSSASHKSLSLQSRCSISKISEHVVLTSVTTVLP
Beta-galactosidase, sequence (Q8VNN2 whole entry): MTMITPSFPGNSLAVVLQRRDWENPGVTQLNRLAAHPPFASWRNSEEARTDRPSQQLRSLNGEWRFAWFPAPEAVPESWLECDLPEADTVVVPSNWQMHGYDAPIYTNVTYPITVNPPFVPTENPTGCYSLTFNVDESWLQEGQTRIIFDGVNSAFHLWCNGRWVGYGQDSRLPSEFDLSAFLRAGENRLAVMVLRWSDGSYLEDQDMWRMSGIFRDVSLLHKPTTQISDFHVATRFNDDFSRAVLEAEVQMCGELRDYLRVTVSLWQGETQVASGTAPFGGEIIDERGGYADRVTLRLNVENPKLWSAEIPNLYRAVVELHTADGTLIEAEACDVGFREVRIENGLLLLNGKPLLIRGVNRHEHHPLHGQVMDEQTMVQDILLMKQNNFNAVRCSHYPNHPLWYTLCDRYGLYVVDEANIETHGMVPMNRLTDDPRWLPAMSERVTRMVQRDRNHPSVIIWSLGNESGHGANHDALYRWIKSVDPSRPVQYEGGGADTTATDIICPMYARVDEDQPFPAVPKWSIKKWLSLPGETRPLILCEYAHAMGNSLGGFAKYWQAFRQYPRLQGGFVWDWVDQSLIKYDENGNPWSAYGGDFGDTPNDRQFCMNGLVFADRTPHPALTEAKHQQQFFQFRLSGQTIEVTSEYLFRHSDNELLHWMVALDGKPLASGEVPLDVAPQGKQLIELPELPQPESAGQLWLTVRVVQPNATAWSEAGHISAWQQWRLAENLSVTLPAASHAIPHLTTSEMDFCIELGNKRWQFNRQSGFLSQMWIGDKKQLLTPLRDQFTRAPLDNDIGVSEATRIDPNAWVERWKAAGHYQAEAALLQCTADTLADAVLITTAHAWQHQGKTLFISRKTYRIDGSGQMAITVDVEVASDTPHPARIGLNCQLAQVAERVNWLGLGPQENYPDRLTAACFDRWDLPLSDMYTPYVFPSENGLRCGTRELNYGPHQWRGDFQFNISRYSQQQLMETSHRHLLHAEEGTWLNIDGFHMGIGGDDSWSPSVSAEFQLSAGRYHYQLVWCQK

In the case of `CSc1cccc(N2CC(C(=O)NCCN3C(=O)S/C(=C\c4cccnc4)C3=O)CC2=O)c1` (stereo unspecified), the IC50 [1] is reported as 10.5 µM (inactive), the IC50 [2] is reported as 20.6 µM (inactive) and the IC50 [3] is reported as > 49.8 µM (inactive). For the same compound, the IC50 [4] was > 50 µM (inactive), the IC50 [5] was 3.1 µM (active) and the IC50 [6] was 0.354 µM (active).

For `O=C(c1cn(-c2ccccc2)nc1-c1cccs1)N1CCN(c2ccccn2)CC1`, the AC50 [7] was > 350 µM (inactive) and the AC50 [8] was 3.87 µM (active).

In the case of `Cc1ccc(S(=O)(=O)NCc2ccc(C(=O)NCCN(Cc3ccccc3)C(C)C)cc2)cc1`, the EC50 [9] is reported as > 32 µM (inactive), the IC50 [10] is reported as > 32 µM (inactive) and the EC50 [11] is reported as > 31.5 µM (inactive). For the same compound, the IC50 [12] was 14 µM (inactive), the IC50 [13] was > 32 µM (inactive) and the IC50 [14] was > 32 µM (inactive). The EC50 [15] was > 32 µM (inactive), the IC50 [16] was > 32 µM (inactive) and the EC50 [17] was > 32 µM (inactive). For the same compound, the EC50 [18] was > 32 µM (inactive).

For `O=C(CN1CCN(c2ccc(O)cc2)CC1)NC(c1ccccc1)c1ccccc1`, the IC50 [19] was > 100 µM (inactive), the EC50 [20] was 28.5 µM (active) and the IC50 [21] was > 100 µM (inactive).
